The target in series [1] is Mitogen-activated protein kinase 11 (Homo sapiens) (UniProt Q15759). The note with it: Compound concentration 1000.0 nM.
The target in series [2] is Alpha-1B adrenergic receptor (Homo sapiens) (UniProt P35368). The following applies: Compound concentration 10.0 uM.
Series [3] addresses D(1A) dopamine receptor (Homo sapiens) (UniProt P21728). The following applies: Compound concentration 10.0 uM.
For series [4], the target named is Cysteinyl leukotriene receptor 1 (Homo sapiens) (UniProt Q9Y271). Briefly: CYSLT1_HS Eurofins-Panlabs selectivity data (BI). The note with it: Compound concentration 10.0 uM.
The target in series [5] is Alpha-1B adrenergic receptor (Homo sapiens) (UniProt P35368). The series is described as follows: ALPHA1B/R Eurofins-Panlabs selectivity data (BI). The note with it: Rattus norvegicus; Compound concentration 10.0 uM.
For series [6], the target named is Substance-P receptor (Homo sapiens) (UniProt P25103). Briefly: NK1/HU Eurofins-Panlabs selectivity data (BI). The following applies: Compound concentration 10.0 uM.
Series [7] addresses Voltage-dependent N-type calcium channel subunit alpha-1B (Rattus norvegicus) (UniProt Q02294). Briefly: CA+/N/RA Eurofins-Panlabs selectivity data (BI). The note with it: Compound concentration 10.0 uM.
The target of series [8] is Adenosine receptor A1 (Homo sapiens) (UniProt P30542). The series is described as follows: A1/HU Eurofins-Panlabs selectivity data (BI). The following applies: Compound concentration 10.0 uM.
For series [9], the target named is B2 bradykinin receptor (Homo sapiens) (UniProt P30411). The series is described as follows: B2/HU Eurofins-Panlabs selectivity data (BI). The following applies: Compound concentration 10.0 uM.
The target in series [10] is Gamma-aminobutyric acid receptor subunit alpha-1 (Rattus norvegicus) (UniProt P62813). The series is described as follows: GABAA MUSCIMOL CENT Eurofins-Panlabs selectivity data (BI). The note with it: Compound concentration 10.0 uM.
The target of series [11] is Sigma non-opioid intracellular receptor 1 (Homo sapiens) (UniProt Q99720). Briefly: SIGMA1/HU Eurofins-Panlabs selectivity data (BI). The following applies: Compound concentration 10.0 uM.
Series [12] has as its target 3',5'-cyclic-AMP phosphodiesterase 4A (Rattus norvegicus) (UniProt P54748). The series is described as follows: ROLIPRAM/R Eurofins-Panlabs selectivity data (BI). The note with it: Compound concentration 10.0 uM.
For series [13], the target named is Muscarinic acetylcholine receptor M3 (Homo sapiens) (UniProt P20309). The note with it: Compound concentration 10.0 uM.
Series [14] has as its target Sigma intracellular receptor 2 (Homo sapiens) (UniProt Q5BJF2). The series is described as follows: SIGMA2/R Eurofins-Panlabs selectivity data (BI). The following applies: Rattus norvegicus; Compound concentration 10.0 uM.
Series [15] has as its target T1, Sodium channel alpha subunit (site 2) (Homo sapiens, UniProt P35498+P35499+Q01118+Q14524+Q15858+Q99250+Q9NY46+Q9UI33+Q9UQD0+Q9Y5Y9). The series is described as follows: NA+/SITE2AG Eurofins-Panlabs selectivity data (BI). The format is protein assay, Cavia porcellus. The arrangement: mode of action antagonist. The following applies: guinea pig; compound concentration 30 uM; read-out: % Ctrl.

The target in series [16] is Muscarinic acetylcholine receptor M3 (Homo sapiens) (UniProt P20309). Briefly: M3/HU Eurofins-Panlabs selectivity data (BI). The following applies: Compound concentration 10.0 uM.
Series [17] deals with Mu-type opioid receptor (Homo sapiens) (UniProt P35372). Briefly: MU/HU Eurofins-Panlabs selectivity data (BI). The following applies: Compound concentration 10.0 uM.
Series [18] deals with Delta-type opioid receptor (Homo sapiens) (UniProt P41143). The series is described as follows: DELTA/HU Eurofins-Panlabs selectivity data (BI). The note with it: Compound concentration 10.0 uM.
Series [19] concerns the target Histamine H3 receptor (Homo sapiens) (UniProt Q9Y5N1). The note with it: Compound concentration 10.0 uM.
In series [20] the target is Gamma-aminobutyric acid type B receptor subunit 1 (Homo sapiens) (UniProt Q9UBS5). The series is described as follows: GABA_B1A Eurofins-Panlabs selectivity data (BI). The following applies: Compound concentration 10.0 uM.
For series [21], the target named is Beta-1 adrenergic receptor (Homo sapiens) (UniProt P08588). The series is described as follows: BETA1/HU Eurofins-Panlabs selectivity data (BI). The note with it: Compound concentration 10.0 uM.
Series [22] has as its target T2, Muscarinic acetylcholine receptor M1 (Homo sapiens) (UniProt P11229).
T2 sequence (whole entry): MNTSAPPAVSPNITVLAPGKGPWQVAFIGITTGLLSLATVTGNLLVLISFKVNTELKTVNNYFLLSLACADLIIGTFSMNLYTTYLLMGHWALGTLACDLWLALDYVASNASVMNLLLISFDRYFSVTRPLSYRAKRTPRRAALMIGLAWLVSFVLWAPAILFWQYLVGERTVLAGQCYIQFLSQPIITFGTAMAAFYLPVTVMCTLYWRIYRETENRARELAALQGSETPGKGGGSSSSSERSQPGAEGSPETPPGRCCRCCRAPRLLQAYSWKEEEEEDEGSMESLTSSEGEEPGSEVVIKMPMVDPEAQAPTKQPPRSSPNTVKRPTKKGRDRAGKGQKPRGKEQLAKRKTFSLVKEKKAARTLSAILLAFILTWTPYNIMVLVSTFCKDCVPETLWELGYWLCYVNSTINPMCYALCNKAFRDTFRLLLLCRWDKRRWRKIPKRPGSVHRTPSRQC
Briefly: M1/HU Eurofins-Panlabs selectivity data (BI). The note with it: Compound concentration 10.0 uM.

Series [23] has as its target Beta-1 adrenergic receptor (Homo sapiens) (UniProt P08588). The following applies: Compound concentration 10.0 uM.
Series [24] addresses Acetylcholine receptor subunit alpha (Homo sapiens) (UniProt P02708). Briefly: NACH/H Eurofins-Panlabs selectivity data (BI). The note with it: Compound concentration 10.0 uM.
The target in series [25] is hERG (voltage-gated inwardly rectifying potassium channel KCNH2) (Homo sapiens, UniProt Q12809). The series is described as follows: K+/HERG Eurofins-Panlabs selectivity data (BI). The following applies: compound concentration 10 uM, read-out: % Ctrl.
The target in series [26] is T1, Sodium channel alpha subunit (site 2). The series is described as follows: NA+/SITE2ATG Eurofins-Panlabs selectivity data (BI). Further details: mode of action antagonist; call rule not given here. It is filed as protein assay, Cavia porcellus. The following applies: guinea pig; compound concentration 30 uM; read-out: % Ctrl.
In series [27] the target is D(3) dopamine receptor (Homo sapiens) (UniProt P35462). Briefly: D3/HU Eurofins-Panlabs selectivity data (BI). The following applies: Compound concentration 10.0 uM.
Series [28] addresses 5-hydroxytryptamine receptor 2A (Homo sapiens, UniProt P28223). Briefly: GPCRScan assay: inhibition of 5-HT2A. Further details: radioligand conc. used [nm] 1.2 – 2.4, parental cells HEKT.
The target in series [29] is T3, D(4) dopamine receptor (Homo sapiens) (UniProt P21917).
T3 sequence (whole entry): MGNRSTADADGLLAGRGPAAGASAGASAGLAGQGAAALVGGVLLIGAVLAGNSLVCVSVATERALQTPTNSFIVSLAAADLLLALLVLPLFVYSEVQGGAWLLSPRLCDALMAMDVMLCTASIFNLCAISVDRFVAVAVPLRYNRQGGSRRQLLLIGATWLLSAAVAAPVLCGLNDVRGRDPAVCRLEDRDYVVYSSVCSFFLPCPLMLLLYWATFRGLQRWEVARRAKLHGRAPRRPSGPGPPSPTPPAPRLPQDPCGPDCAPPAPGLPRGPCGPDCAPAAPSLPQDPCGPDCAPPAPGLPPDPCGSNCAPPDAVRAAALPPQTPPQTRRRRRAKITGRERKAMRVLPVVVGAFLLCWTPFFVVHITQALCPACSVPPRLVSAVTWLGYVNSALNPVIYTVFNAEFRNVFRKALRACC
The series is described as follows: D4.2/H Eurofins-Panlabs selectivity data (BI). The note with it: Compound concentration 10.0 uM.

Series [30] concerns the target Protein kinase C alpha type (Mus musculus) (UniProt P20444). The series is described as follows: PHORBOLE/M Eurofins-Panlabs selectivity data (BI). The following applies: Compound concentration 10.0 uM.
For series [31], the target named is 5-hydroxytryptamine receptor 5A (Homo sapiens) (UniProt P47898). The note with it: Compound concentration 10.0 uM.
The target of series [32] is ATP-sensitive inward rectifier potassium channel 1 isoform X1 (Mesocricetus auratus) (UniProt A0A1U8CU73). The note with it: Compound concentration 10.0 uM.

Alpha-1B adrenergic receptor (Homo sapiens), sequence (P35368 whole entry): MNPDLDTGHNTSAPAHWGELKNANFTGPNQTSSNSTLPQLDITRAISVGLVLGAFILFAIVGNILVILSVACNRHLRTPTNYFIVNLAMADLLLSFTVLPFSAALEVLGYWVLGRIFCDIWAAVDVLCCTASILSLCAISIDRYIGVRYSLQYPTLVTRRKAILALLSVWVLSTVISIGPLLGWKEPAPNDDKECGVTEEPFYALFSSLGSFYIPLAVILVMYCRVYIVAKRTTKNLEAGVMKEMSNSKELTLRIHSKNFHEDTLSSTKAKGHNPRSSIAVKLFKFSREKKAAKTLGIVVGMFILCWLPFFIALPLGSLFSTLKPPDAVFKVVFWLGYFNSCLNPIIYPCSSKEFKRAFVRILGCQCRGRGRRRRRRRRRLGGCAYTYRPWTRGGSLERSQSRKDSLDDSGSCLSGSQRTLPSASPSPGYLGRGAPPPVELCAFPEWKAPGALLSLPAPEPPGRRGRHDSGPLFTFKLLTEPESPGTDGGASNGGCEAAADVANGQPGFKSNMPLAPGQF
Beta-1 adrenergic receptor (Homo sapiens), sequence (P08588 whole entry, looked up): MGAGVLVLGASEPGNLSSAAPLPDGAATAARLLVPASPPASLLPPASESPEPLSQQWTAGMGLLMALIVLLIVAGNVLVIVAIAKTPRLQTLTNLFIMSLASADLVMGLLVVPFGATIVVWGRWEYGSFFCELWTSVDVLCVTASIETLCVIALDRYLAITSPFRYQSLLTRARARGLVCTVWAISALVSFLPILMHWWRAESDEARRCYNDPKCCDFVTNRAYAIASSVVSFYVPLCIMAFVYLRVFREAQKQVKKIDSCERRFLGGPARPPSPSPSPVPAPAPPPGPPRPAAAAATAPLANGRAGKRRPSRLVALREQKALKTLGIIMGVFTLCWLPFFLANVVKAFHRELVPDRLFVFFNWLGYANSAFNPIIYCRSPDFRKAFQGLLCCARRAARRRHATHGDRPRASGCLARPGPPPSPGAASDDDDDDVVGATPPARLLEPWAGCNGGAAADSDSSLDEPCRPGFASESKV
Muscarinic acetylcholine receptor M3 (Homo sapiens), sequence (P20309 whole entry, looked up): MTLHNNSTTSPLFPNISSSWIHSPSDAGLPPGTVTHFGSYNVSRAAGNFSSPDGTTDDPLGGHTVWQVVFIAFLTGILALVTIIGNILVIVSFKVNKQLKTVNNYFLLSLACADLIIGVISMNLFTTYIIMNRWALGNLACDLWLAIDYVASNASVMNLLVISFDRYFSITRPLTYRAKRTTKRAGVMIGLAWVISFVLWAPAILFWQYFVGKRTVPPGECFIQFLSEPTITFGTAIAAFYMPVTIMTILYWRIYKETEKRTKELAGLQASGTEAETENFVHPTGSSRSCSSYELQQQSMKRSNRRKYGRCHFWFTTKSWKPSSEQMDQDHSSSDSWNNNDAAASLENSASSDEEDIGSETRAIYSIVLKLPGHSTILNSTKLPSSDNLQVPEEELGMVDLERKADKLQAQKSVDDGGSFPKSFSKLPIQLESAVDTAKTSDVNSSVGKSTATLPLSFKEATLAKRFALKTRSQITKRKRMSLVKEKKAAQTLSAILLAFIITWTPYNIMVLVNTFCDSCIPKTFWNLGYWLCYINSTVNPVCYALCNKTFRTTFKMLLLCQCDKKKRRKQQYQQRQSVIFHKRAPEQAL
Voltage-dependent N-type calcium channel subunit alpha-1B (Rattus norvegicus), sequence (Q02294 whole entry, looked up): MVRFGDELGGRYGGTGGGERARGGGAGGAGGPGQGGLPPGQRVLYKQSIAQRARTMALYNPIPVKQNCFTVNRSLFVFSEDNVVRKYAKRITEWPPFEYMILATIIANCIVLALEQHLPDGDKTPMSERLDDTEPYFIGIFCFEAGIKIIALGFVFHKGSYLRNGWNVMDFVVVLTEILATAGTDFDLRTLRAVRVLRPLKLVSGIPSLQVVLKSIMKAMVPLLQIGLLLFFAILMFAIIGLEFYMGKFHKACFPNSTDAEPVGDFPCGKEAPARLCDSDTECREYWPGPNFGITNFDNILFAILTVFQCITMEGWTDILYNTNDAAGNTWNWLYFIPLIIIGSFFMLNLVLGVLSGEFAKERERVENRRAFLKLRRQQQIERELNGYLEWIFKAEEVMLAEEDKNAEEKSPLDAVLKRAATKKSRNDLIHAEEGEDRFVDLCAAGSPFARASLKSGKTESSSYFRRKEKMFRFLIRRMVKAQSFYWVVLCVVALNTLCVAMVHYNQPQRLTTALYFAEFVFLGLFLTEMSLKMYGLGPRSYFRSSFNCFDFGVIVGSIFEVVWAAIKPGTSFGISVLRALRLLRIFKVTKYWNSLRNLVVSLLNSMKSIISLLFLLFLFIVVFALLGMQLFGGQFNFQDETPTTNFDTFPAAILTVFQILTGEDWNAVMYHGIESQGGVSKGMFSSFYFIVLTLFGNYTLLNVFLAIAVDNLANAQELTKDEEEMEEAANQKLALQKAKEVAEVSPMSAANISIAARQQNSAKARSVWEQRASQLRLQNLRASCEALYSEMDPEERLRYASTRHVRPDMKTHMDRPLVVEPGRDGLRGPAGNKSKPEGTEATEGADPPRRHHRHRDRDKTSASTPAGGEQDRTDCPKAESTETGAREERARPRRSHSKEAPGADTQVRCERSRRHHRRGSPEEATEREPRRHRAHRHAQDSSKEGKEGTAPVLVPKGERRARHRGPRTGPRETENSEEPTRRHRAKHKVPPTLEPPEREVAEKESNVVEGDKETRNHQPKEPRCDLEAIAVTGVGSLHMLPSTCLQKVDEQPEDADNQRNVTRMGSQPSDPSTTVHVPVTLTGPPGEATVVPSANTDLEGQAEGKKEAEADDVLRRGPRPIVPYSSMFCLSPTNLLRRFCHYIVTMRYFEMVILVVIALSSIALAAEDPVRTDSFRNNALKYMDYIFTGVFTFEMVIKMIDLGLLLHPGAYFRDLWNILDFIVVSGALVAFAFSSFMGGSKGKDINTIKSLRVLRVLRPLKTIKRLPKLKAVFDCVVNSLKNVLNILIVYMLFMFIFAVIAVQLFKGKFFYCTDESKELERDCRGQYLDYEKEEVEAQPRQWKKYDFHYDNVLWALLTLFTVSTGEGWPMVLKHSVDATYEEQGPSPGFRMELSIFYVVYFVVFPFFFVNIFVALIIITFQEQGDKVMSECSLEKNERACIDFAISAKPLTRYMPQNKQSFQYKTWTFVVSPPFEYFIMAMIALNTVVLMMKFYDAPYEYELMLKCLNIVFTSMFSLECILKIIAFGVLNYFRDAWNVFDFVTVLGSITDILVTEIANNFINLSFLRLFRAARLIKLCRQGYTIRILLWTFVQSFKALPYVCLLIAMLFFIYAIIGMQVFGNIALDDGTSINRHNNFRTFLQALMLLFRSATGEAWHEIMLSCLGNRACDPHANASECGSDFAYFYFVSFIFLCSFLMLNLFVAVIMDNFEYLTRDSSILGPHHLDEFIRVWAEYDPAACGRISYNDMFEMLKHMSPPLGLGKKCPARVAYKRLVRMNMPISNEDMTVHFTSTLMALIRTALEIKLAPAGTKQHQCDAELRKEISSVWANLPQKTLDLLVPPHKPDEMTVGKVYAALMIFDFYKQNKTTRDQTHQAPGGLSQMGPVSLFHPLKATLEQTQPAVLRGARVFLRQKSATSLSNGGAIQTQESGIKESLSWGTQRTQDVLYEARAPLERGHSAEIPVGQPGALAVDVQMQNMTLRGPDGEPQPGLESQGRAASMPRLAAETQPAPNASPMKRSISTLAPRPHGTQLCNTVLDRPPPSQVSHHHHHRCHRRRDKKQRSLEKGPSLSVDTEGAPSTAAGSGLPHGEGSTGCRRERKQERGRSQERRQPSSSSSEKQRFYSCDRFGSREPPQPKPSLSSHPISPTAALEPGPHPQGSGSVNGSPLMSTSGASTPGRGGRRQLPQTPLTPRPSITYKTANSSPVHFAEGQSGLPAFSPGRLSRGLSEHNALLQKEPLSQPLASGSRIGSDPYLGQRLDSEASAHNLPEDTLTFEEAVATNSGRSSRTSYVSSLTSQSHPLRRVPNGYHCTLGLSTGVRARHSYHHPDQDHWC
hERG (voltage-gated inwardly rectifying potassium channel KCNH2), sequence (Q12809 whole entry): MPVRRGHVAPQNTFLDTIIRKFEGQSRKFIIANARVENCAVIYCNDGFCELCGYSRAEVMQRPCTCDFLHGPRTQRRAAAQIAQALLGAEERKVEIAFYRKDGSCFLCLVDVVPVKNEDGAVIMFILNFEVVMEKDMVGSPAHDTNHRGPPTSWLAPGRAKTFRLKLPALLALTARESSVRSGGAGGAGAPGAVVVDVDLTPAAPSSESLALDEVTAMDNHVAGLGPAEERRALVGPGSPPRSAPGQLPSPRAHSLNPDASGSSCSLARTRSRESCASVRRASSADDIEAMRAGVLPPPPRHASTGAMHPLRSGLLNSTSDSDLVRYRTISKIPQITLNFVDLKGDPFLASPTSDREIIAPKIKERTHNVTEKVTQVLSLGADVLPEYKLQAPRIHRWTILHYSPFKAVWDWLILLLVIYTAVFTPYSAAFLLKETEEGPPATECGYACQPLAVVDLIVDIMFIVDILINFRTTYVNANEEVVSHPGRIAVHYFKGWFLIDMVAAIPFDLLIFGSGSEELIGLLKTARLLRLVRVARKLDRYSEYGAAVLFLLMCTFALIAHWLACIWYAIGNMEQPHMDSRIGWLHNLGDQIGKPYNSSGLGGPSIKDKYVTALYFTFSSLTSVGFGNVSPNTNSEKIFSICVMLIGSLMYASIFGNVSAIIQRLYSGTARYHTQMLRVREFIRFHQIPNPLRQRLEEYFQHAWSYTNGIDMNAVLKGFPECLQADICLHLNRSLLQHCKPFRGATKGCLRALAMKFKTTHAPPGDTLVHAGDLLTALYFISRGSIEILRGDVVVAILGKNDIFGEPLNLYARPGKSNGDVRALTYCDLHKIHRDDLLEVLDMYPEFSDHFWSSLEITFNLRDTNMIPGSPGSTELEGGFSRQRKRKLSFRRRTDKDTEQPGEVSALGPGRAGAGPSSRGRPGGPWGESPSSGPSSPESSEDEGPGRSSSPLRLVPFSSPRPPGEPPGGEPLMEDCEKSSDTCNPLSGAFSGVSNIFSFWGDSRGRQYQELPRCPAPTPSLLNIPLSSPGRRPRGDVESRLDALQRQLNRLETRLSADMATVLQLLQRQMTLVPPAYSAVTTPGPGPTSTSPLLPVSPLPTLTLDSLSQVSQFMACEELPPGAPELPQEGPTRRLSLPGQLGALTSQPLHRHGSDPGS

As for `CC(=O)N1CCC(c2ccc(C(=O)NC3=NCCN3)cc2C(F)(F)F)CC1` [BI 0054], in series [1], the residual activity is 98%. The inhibition was -0.596% in series [2] and 4.8% in series [3].
In the case of `CC(=O)N1CCC(c2ccc(C(=O)NC(=N)N)cc2C(F)(F)F)CC1` [BI 9627], the residual activity in [4] was 95%; in [5], 95%; in [6], 100%; in [7], 98%; in [8], 58%; in series [9], 105%. Further, the residual activity is 89% in series [10]; 114% in [11]; 92% in series [12]; 90% in series [14]; 79% in [16]; 91% in series [17]. The residual activity was 113% in [18]; 103% in series [20]; 102% in series [21]; 61% in series [22]; 102% in series [24]; 117% in [27]. The residual activity in series [29] was 105%; in series [30], 101%; in [32], 96%. Further, the inhibition in series [13] is 12.1%; in series [19], -6.54%; in series [23], -9.29%; in [31], -4.89%. Also, the activity at 30 µM in series [15] and in series [26] was 100% (not active) in each case. Further, in series [25], the activity at 10 µM was 105% (not active). Also, the Ki in [28] is 10 µM.

Usually inhibition stands for the relative decrease from the control value, in per cent. One may read the Ki as a measure of affinity in units of concentration, obtained from inhibition or displacement.

The values are drawn from ChEMBL document CHEMBL4507279, “Data for DCP probe BI-9627” (2021).
